Data published in patent publication US20220390432A1, “METHODS OF CHARACTERIZING AND UTILIZING AGENT-CONDENSATE INTERACTIONS” (Whitehead Institute for Biomedical Research, priority 2019, published 2022).
“Also recorded” adds a separate entry of the source.

Assays:
MED1 droplets = target: T1, MED1 droplets (Homo sapiens, UniProt Q15648); test: In vitro droplet drug chase out experiment; type: binding; conditions: 100 μM FLTX1, 10-fold excess (1 mM) tamoxifen
T1 construct: MED1—amino acids 600-1581; 6xHis (N); made in house; host or cells: LOBSTR cells (E. coli)
T1 sequence (Q15648 600-1581): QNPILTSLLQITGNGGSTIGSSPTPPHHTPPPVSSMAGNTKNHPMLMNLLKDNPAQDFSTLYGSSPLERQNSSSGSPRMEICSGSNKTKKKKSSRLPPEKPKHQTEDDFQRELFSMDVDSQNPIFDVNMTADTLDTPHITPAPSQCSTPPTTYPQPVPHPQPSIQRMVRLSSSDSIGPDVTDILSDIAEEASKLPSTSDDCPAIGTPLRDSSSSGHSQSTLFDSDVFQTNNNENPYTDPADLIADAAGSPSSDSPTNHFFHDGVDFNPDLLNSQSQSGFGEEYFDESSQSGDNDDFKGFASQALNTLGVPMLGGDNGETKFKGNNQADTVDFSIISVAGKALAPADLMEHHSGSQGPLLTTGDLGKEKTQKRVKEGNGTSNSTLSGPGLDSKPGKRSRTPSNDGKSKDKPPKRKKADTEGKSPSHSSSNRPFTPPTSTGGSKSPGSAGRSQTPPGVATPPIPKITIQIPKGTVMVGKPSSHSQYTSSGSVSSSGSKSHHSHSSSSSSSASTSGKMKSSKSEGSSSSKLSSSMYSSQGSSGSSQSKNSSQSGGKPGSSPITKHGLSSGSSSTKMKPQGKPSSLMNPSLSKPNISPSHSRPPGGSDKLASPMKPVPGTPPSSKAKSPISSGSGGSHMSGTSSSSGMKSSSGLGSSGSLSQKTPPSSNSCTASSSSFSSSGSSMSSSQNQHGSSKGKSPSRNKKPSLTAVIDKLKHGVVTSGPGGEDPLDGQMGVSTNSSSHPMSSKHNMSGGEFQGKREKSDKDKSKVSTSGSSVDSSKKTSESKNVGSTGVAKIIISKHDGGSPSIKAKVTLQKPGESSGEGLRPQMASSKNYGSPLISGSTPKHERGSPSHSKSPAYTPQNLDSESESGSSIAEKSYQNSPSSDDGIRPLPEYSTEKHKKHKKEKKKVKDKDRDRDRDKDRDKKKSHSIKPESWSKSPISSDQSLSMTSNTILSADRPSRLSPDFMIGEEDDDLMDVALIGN
Description: For chase-out experiments 5 μM labeled cisplatin-TR was added to a MED1 droplets reaction (10 μM MED1, 50 mM Tris-HCl pH 7.5, 10% glycerol, 1 mM DTT, 10% PEG) in order to form MED1 droplets concentrated with Cisplatin-TR. Unlabeled transplatin or unlabeled cisplatin (vehicle, 10 μM, 100 μM, or 500 μM) were added to the droplet mixture and the amount of labeled cisplatin-TR remaining in the droplet is measured after chase out. 100 μM fluorescent FLTX1 was added to a MED1 droplets reaction (10 μM MED1, 50 mM Tris-HCl pH 7.5, 10% glycerol, 1 mM DTT, 10% PEG) in order to form MED1 droplets concentrated with FLTX1.

[1] = system: ERα-MED1 condensate at the Lac array in U2OS cells; test: Lac array assay with tethered ER, MED1 immunofluorescence; type: cell-based, human; conditions: for effect on ER/MED1 condensate at the Lac array: tethered ER, estrogen
Text: When the transcriptional apparatus is recruited to that site a mediator condensate is detectable by immunofluorescence (Middle) U20S-Lac cells were transfected with a construct expressing the Lac DBD fused to the ER LBD and GFP+/− a construct overexpressing MED1. […] (Right) Quantification of MED1 enrichment relative at the Lac array, error bars represent SD.
Constructs were assembled by NEB HIFI cloning in pSV2 mammalian expression vector containing an SV40 promoter driving expression of a mCherry-LacI fusion protein. The intrinsically disordered region of MED1, HP1α, or the activation domain of ESR1 was fused by the c-terminus to this recombinant protein, joined by the linker sequence […] (SEQ ID NO: 16). For experiments comparing FLTX1 enrichment at the array, U20S-Lac cells were plated onto chambered coverglass (1.5 Borosilicate Glass, Nunc Lab-Tek, 155409) and transfected with either MED1 IDR or HP1α constructs with lipofectamine 3000 (Thermofisher L3000015). After 24 hours, cells were treated with either 1 uM FLTX1 or vehicle (DMF). After 30 minutes, cells were imaged on the Zeiss LSM 880 confocal microscope with Airyscan detector with 63× objective at 37° C. For experiments with high MED1, cells grown in DMEM were plated on glass coverslips and transfected using lipofectamine 3000 (Thermofisher L3000015). A construct with a mammalian expression vector containing a PGK promoter driving the expression of MED1 fused to GFP was co-transfected in high MED1 conditions. […]
For analysis of Lac array data comparing MED1 or HP1α tethered, a region of interest was called using the signal in the Lac array (561 channel). The average fluorescent signal for FLTX1 (488 channel) was then measured in the region of interest and divided by the average fluorescence in the region of interest at the Lac array. […] For analysis of Lac array data for MED1 overexpression, enrichment was calculated by dividing the average fluorescent signal for MED1 immunofluorescence at the region of interest, defined by the ER tethered at the lac array, by MED1 immunofluorescence signal at a random nuclear region.

[2] = system: patient-derived ERα mutants and MED1; test: In vitro droplet assay of patient-derived ERα mutants with MED1; type: biochemical, human; conditions: 100 μM estrogen, 100 μM tamoxifen
ERα point mutations = conditions: reference (52); cited from earlier work
[3] = system: MED1 condensates at MYC in MCF7 cells; test: Immunofluorescence with DNA FISH, MED1 condensates at the MYC oncogene; type: cell-based, human; conditions: estrogen-starved MCF7 treated with estrogen or estrogen and tamoxifen
Description: MCF7 cells were grown in estrogen-free DMEM for 3 days on Poly-L-ornithine coated coverslips in 24 well plates at an initial seeding density of 50,000 cells per well. Cells were then treated with vehicle, 10 uM estradiol, or 10 uM estradiol and 5 uM 4-hydroxytamoxifen for 45 minutes.
Cells on cover slips were then fixed in 4% paraformaldehyde. Immunofluorescence was performed as described above. After incubating the cells with the secondary antibodies, cells were washed three times in PBS for 5 min at RT, fixed with 4% PFA in PBS for 10 min and washed three times in PBS. Cells were incubated in 70% ethanol, 85% ethanol and then 100% ethanol for 1 minute at RT. Probe hybridization mixture was made mixing […], of FISH Hybridization Buffer (Agilent G9400A), 1 μl of FISH probes (SureFISH 8q24.21 MYC 294 kb G101211R-8) and 2 μL of water.
5 μL of mixture was added on a slide and coverslip was placed on top (cell-side toward the hybridization mixture). Coverslip was sealed using rubber cement. Once rubber cement solidified, genomic DNA and probes were denatured at 78° C. for 5 minutes and slides were incubated at 16° C. in the dark O/N. The coverslip was removed from slide and incubated in pre-warmed Wash Buffer 1 (Agilent, G9401A) at 73° C. for 2 minutes and in Wash Buffer 2 (Agilent, G9402A) for 1 minute at RT. […]

SMILES: CC/C(=C(\c1ccccc1)c1ccc(OCCN(C)C)cc1)c1ccccc1 [tamoxifen]
- chase out of FLTX1 from MED1 droplets (MED1 droplets): diluted out
- chase out of FLTX1 from MED1 droplets (MED1 droplets; listed as Tamoxifen): able to chase-out FLTX1
- effect on ERα-MED1 condensate at the Lac array when MED1 is overexpressed ([1]; MED1 overexpressed): unable to dissociate the ERα-MED1 condensate
- effect on ER/MED1 condensate at the Lac array [1]: eliminated by tamoxifen
- effect on ER/MED1 condensate at the Lac array ([1]; listed as Tamoxifen): reduced ER (green) and MED1 (red) containing condensates
- disruption of ERα mutant/MED1 condensates [2]: not disrupted
- reduction of affinity for tamoxifen by ERα point mutations (ERα point mutations): approximately 10 fold
- MED1 condensates at the MYC oncogene [3]: reduces these; also recorded: not in the absence of estrogen or in the presence of estrogen and tamoxifen
